The source of these data is patent US20090291945A1, “CYSTEINE PROTEASE INHIBITORS” (Teijin Pharma Limited, priority 2008, published 2009).

Molecules are shown by their SMILES.

The test concerns the target T1, cathepsin K (Homo sapiens, UniProt P43235).
T1 construct: the active enzyme was obtained as the enzyme fraction by using detergent containing lysis buffer; made in house; host or cells: HEK293T (GenHunter Corporation), transient expression; detergent lysate used as enzyme fraction
T1 sequence (P43235 115-329): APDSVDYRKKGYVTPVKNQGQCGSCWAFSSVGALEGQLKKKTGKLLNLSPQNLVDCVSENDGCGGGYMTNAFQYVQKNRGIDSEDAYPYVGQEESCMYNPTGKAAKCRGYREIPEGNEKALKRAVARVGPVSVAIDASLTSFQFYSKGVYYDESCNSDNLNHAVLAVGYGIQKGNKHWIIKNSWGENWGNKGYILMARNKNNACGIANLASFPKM
Put plainly: Cathepsin K inhibitory activity (fluorescent substrate Z-Leu-Arg-MCA). The test is classed as biochemical. The following applies: enzyme expressed in HEK293T; 15 min preincubation, 30 min reaction at room temperature, pH 5.5; read-out: Activity Intensity (cathepsin K inhibitory activity, pIC50 class) (converted). As to the method: Cathepsin K inhibitory activities of the compounds synthesized according to the methods of the above examples were measured.
Cathepsin K used for evaluation of inhibitory activity was transiently expressed in an animal cell HEK293T (made by GenHunter Corporation) and the active enzyme was obtained as the enzyme fraction by using detergent containing lysis buffer.
The enzyme solution A was prepared at 2.1 times final concentration by diluting the enzyme fraction with assay buffer (50 mM sodium acetate, 50 mM sodium chloride, 2 mM DTT, pH 5.5). The test compound solutions B were prepared at 50 times final target concentrations by dimethylsulfoxide (DMSO). As a substrate solution C, a solution of a fluorescent substrate, benzyloxycarbonyl-L-leucyl-L-arginyl-4-methyl-coumaryl-7-amide (Z-Leu-Arg-MCA (Peptide Institute Inc.), was prepared at 10 μM by an assay buffer.
To the enzyme solution A (38.4 μL) were added the test compound solutions B (1.6 μL) and mixed individually. The mixtures were incubated at room temperature for 15 minutes. To the incubated solutions were added the substrate solution C (40 μL) and the mixtures were reacted at room temperature for 30 minutes respectively. The fluorescence intensities of the enzyme reaction solutions were measured at excitation wavelength of 355 nm and measurement wavelength of 460 nm and the enzyme activities were calculated from these fluorescence intensities caused by 7-amino-4-methylcoumarine released. The enzyme activity with using DMSO instead of the test compound solution B was taken as 100% and the inhibitory rates at each concentration of the test compound were calculated. The […] response curve was fitted to the plots. The 50% inhibitory concentration against cathepsin K was calculated from this curve.
Note that the symbols (+, ++, and +++) in this table represent the inhibitory activity values as below. Here, pIC50 is the value representing a negative logarithm of IC50, (−log10(IC50)). IC50 is a 50% inhibitory concentration.

For `CC[C@@H](CNc1ccc(N(C)C)cc1)NC(=O)[C@H](CC(C)(C)F)N[C@@H](c1ccc(Br)cc1)C(F)(F)F` [Compound 13], the IC50 was no more than 3.16 nM.
With `CC[C@@H](CNc1ccc(OC)cc1OC)NC(=O)[C@H](CC(C)C)N[C@@H](c1ccc(OC)cc1)C(F)(F)F` [Compound 95] the figure was no more than 3.16 nM.
As to `CC[C@@H](CNc1ccc(OCC(=O)N(C)OC)cc1OC)NC(=O)[C@H](CC(C)C)N[C@@H](c1ccccc1)C(F)(F)F` [Compound 89], the IC50 was no more than 3.16 nM.
In the case of `CC[C@@H](CNc1ccc(OC)cc1OC)NC(=O)[C@H](CC(C)(C)C)N[C@@H](c1ccccc1)C(F)(F)F` [Compound 59], the IC50 was no more than 3.16 nM.
Regarding `CC[C@@H](CNc1ccc(-n2cccn2)cc1)NC(=O)[C@H](CC(C)C)N[C@@H](c1ccccc1)C(F)(F)F` [Compound 47], the IC50 was 31.6 to 10000 nM.
Regarding `CC[C@@H](CNc1ccc(N2CCCC2=O)cc1)NC(=O)[C@H](CC(C)C)N[C@@H](c1ccc(OC)nc1)C(F)(F)F` [Compound 54], the IC50 is 3.16 to 31.6 nM.
With `CC[C@@H](CNc1ccc(OCC(F)(F)F)cc1)NC(=O)[C@H](CC(C)C)N[C@@H](c1ccccc1)C(F)(F)F` [Compound 90] the figure was 31.6 to 10000 nM; with `CC(C)C[C@H](N[C@@H](c1ccccc1)C(F)(F)F)C(=O)N[C@@H](C)CNc1ccc(N2CCOCC2)cc1` [Compound 71], no more than 3.16 nM.
Regarding `COc1ccc(NC[C@H](CC(C)C)NC(=O)[C@H](CC(C)C)N[C@@H](c2ccccc2)C(F)(F)F)c(OC)c1` [Compound 64], the IC50 is no more than 3.16 nM.
Consider `CC[C@@H](CNc1ccc(OC)cc1OC)NC(=O)[C@H](Cc1ccccc1)N[C@@H](c1cccs1)C(F)(F)F` [Compound 62], for which the IC50 is 31.6 to 10000 nM.
With `COc1ccc([C@H](N[C@@H](CC(C)C)C(=O)N[C@@H](C)CNc2ccc(N3CCOCC3)cc2)C(F)(F)F)cn1` [Compound 75] the figure was no more than 3.16 nM; with `CC(C)C[C@H](N[C@@H](c1ccccc1)C(F)(F)F)C(=O)N[C@@H](CCCNC(=O)OCc1ccccc1)CNc1ccc(N2CCOCC2)cc1` [Compound 103], no more than 3.16 nM; with `CC[C@@H](CNc1ccc(OCc2ccccc2)cc1)NC(=O)[C@H](CC(C)C)N[C@@H](c1ccccc1)C(F)(F)F` [Compound 96], 3.16 to 31.6 nM.
Turning to `CC[C@@H](CNc1ccc(N2CCOCC2)cc1)NC(=O)[C@H](CC(C)C)N[C@@H](c1ccc(Cl)cc1)C(F)(F)F` [Compound 34], the IC50 is no more than 3.16 nM.
On to `CC[C@@H](CNc1ccc(OCCS(C)(=O)=O)cc1OC)NC(=O)[C@H](CC(C)(C)F)N[C@@H](c1ccc(Br)cc1)C(F)(F)F` [Compound 138-2, (2S)-2-{[(1S)-1-(4-bromophenyl)-2,2,2-trifluoroethyl]amino}-N-{(1S)-1-[({2-methoxy-4-[2-(methylsulfonyl)ethoxy]phenyl}amino)methyl]propyl}-4-fluoro-4-methylpentanamide], for which the IC50 was no more than 3.16 nM.
With `CC[C@@H](CNc1ccc(OC)cc1OC)NC(=O)C1(NC(c2ccccc2)C(F)(F)F)CCCCC1` (stereo partly drawn) [Compound 8, N-((1S)-1-{[(2,4-dimethoxyphenyl)amino]methyl}propyl){[(2,2,2-trifluoro-1-phenylethyl)amino]cyclohexyl}carboxamide] the figure was 3.16 to 31.6 nM; with `CC(C)C[C@H](N[C@@H](c1ccccc1)C(F)(F)F)C(=O)N[C@H](CNc1ccc(N2CCOCC2)cc1)CC(=O)OCc1ccccc1` [Compound 69], no more than 3.16 nM.
With `CC[C@@H](CNc1ccc(N2C[C@@H](C)O[C@@H](C)C2)cc1)NC(=O)[C@H](CC(C)C)N[C@@H](c1ccccc1)C(F)(F)F` [Compound 51] the figure was no more than 3.16 nM; with `CC(C)C[C@H](N[C@@H](c1ccccc1)C(F)(F)F)C(=O)N[C@@H](CCOCc1ccccc1)CNc1ccc(N2CCOCC2)cc1` [Compound 87], no more than 3.16 nM; with `CC[C@@H](CNc1ccc(OCC(=O)O)cc1OC)NC(=O)[C@H](CC(C)C)N[C@@H](c1ccccc1)C(F)(F)F` [Compound 119], no more than 3.16 nM.
Turning to `CC[C@@H](CNc1ccc(OCc2ccccc2)cc1)NC(=O)[C@H](CC(C)C)N[C@@H](c1ccc(OC)cc1)C(F)(F)F` [Compound 97], the IC50 is 3.16 to 31.6 nM.
As for `CC[C@@H](CNc1ccc(OCC(=O)N2CCOCC2)cc1OC)NC(=O)[C@H](CC(C)(C)F)N[C@@H](c1ccccc1)C(F)(F)F` [Compound 136], the IC50 is no more than 3.16 nM.
With `COc1ccc(NC[C@H](CCS(C)(=O)=O)NC(=O)[C@H](CC(C)C)N[C@@H](c2ccc(OC)nc2)C(F)(F)F)c(OC)c1` [Compound 84] the figure was 31.6 to 10000 nM; with `CCOC(=O)c1ccnn1-c1ccc(NC[C@H](CC)NC(=O)[C@H](CC(C)C)N[C@@H](c2ccccc2)C(F)(F)F)cc1` [Compound 114], 31.6 to 10000 nM.
Consider `CC[C@@H](CNc1ccc(N2CCOCC2)cc1)NC(=O)[C@H](CC(C)C)N[C@@H](Cc1ccccc1)C(F)(F)F` [Compound 37], for which the IC50 was no more than 3.16 nM.
With `CC(C)C[C@H](N[C@@H](c1ccccc1)C(F)(F)F)C(=O)N[C@@H](CNC(=O)OCc1ccccc1)CNc1ccc(N2CCOCC2)cc1` [Compound 104], the IC50 was no more than 3.16 nM.
`CC[C@@H](CNc1ccc(N2CCOCC2)cc1)NC(=O)[C@H](CC(C)C)N[C@@H](c1cccnc1)C(F)(F)F` [Compound 27]: the IC50 is no more than 3.16 nM.
For `COc1ccc([C@H](N[C@@H](CC(C)C)C(=O)N[C@@H](CCSC)CNc2ccc(OC)cc2OC)C(F)(F)F)cc1` [Compound 67], the IC50 is 3.16 to 31.6 nM.
Turning to `COc1ccc(NC[C@H](CCS(C)(=O)=O)NC(=O)[C@H](CC(C)C)N[C@@H](c2cccnc2)C(F)(F)F)c(OC)c1` [Compound 83], the IC50 is 3.16 to 31.6 nM.
As for `CC[C@@H](CNc1ccc(OCC(F)(F)C(F)F)cc1OC)NC(=O)[C@H](CC(C)(C)F)N[C@@H](c1ccccc1)C(F)(F)F` [Compound 22], the IC50 is 3.16 to 31.6 nM.
For `CC[C@@H](CNc1ccc(N2CCOCC2)cc1)NC(=O)[C@H](CC(C)C)N[C@@H](c1ccc2c(c1)OCO2)C(F)(F)F` [Compound 29], the IC50 was no more than 3.16 nM.
As for `CC[C@@H](CNc1ccc(N2CCOCC2)cc1)NC(=O)[C@H](CC(C)C)N[C@@H](c1ccc(OC)nc1)C(F)(F)F` [Compound 26], the IC50 is no more than 3.16 nM.
Consider `CC[C@@H](CNc1ccc(-n2ccnc2)cc1)NC(=O)[C@H](CC(C)C)N[C@@H](c1ccc(OC)nc1)C(F)(F)F` [Compound 113], for which the IC50 was 31.6 to 10000 nM.
With `CC[C@@H](CNc1ccc(OCCS(C)(=O)=O)cc1OC)NC(=O)[C@H](CC(C)C)N[C@@H](c1ccc(=O)[nH]c1)C(F)(F)F` [Compound 41] the figure was no more than 3.16 nM; with `CC[C@@H](CNc1ccc(-n2cccn2)cc1)NC(=O)[C@H](CC(C)C)N[C@@H](c1ccc(OC)nc1)C(F)(F)F` [Compound 48], 31.6 to 10000 nM.
On to `CC[C@@H](CNc1ccc(OC)cc1OC)NC(=O)C1(N[C@@H](c2ccccc2)C(F)(F)F)CCCC1` [Compound 28], for which the IC50 was 31.6 to 10000 nM.
On to `CC[C@@H](CNc1ccc(OC)cc1OC)NC(=O)[C@H](CC(C)C)N[C@@H](c1ccc(=O)n(C)c1)C(F)(F)F` [Compound 44], for which the IC50 is 3.16 to 31.6 nM.
On to `CC[C@@H](CNc1ccc(N2CCOCC2)cc1)NC(=O)[C@H](CC(C)C)N[C@@H](c1ccc(N(C)C)cc1)C(F)(F)F` [Compound 35], for which the IC50 is no more than 3.16 nM.
`COc1ccc(NC[C@H](CC(C)C)NC(=O)[C@H](Cc2ccccc2)N[C@@H](c2ccccc2)C(F)(F)F)c(OC)c1` [Compound 63]: the IC50 was 31.6 to 10000 nM.
Turning to `COc1ccc(NC[C@H](CC[S+](C)[O-])NC(=O)[C@H](CC(C)C)N[C@@H](c2ccccc2)C(F)(F)F)c(OC)c1` (stereo partly drawn) [Compound 139, (2S)—N-((1S)-1-{[(2,4-dimethoxyphenyl)amino]methyl}-3-(methylsulfinyl)propyl)-2-[((1S)-2,2,2-trifluoro-1-phenylethyl)amino]-4-methylpentanamide], the IC50 is 31.6 to 10000 nM.
With `CCOC(=O)C1(C(C)C)CCN(c2ccc(NC[C@H](CC)NC(=O)[C@H](CC(C)C)N[C@@H](c3ccccc3)C(F)(F)F)cc2)CC1` [Compound 109] the figure was no more than 3.16 nM; with `CC[C@@H](CNc1ccc(OCC(=O)O)cc1OC)NC(=O)[C@H](CC(C)C)N[C@@H](c1ccc(=O)[nH]c1)C(F)(F)F` [Compound 123], 3.16 to 31.6 nM.
With `CC[C@@H](CNc1ccc(-n2ccnc2)cc1)NC(=O)[C@H](CC(C)C)N[C@@H](c1ccccc1)C(F)(F)F` [Compound 112] the figure was 31.6 to 10000 nM; with `CC[C@@H](CNc1ccc(N2CCO[C@@H](C(=O)OC)C2)cc1)NC(=O)[C@H](CC(C)C)N[C@@H](c1ccccc1)C(F)(F)F` [Compound 56], no more than 3.16 nM.
